Measured values taken from patent US20230066008A1, “ANTIPARASITIC COMPOSITION” (DERMALIQ THERAPEUTICS, INC., priority 2020, published 2023).
Read-outs that look alike come from different tables or passages of the source.

Details: for Solubility (%w/v): crotamiton tests
Experimental: 500 mg crotamiton (SynTech, Ph.Eur. grade) is weighed in a 5-ml volumetric flask; the flask is then filled to 5 ml with F6H8 (Novaliq, purity >99%), closed and shaken for 5 min at 280 rpm, RT.

Q: Which results are given for `CC=CC(=O)N(CC)c1ccccc1C` [Crotamiton, crotamiton]?
A: Appearance of resulting solution (100 mg/ml (10% w/v) in F6H8, shaken 5 min at 280 rpm, RT): clear; Solubility (%w/v) (solvent F4H5): >12%w/v; Solubility (%w/v) (solvent F6H2): ^~6%w/v; Solubility (%w/v) (solvent F6H8): >12%w/v
